“Also recorded” adds a separate entry of the source. One block for each compound: values may come before it.
Experiments:
[1] = Elution test: time required for dissolution in anhydrous ethanol (50 rpm); assay type: physicochemical; details: 1 g sample in 500 mL anhydrous ethanol, room temperature, stirring 50 rpm
Description: (§1) An elution test (stirring condition: 50 rpm) was performed for Raw Material 1 (Crystal of Comparative Example) and Crystal 1 of Example 1 to investigate the elution dynamics. After confirming the dissolution of all crystals, the Z isomer and the SE isomer, which were isomers produced in the solution, were analyzed and quantitatively measured by means of HPLC. In the elution test, 500 mL of anhydrous ethanol was used as the solvent, wherein 1 g of the sample was dissolved at room temperature while stirring, and the time, which was required for the dissolution, was simultaneously measured. Accordingly, it is understood that the time, which is required for the dissolution, is short for Crystal 1, and thus the production of the Z isomer and the SE isomer as the isomers is suppressed in the dissolving step.

[2] = HPLC measurement of Z and SE isomers produced in the solution after dissolution; assay type: physicochemical; details: in ethanol solution after dissolution of all crystals
Description: as §1, with “step. The condition for HPLC was as follows. Column: CHIRALCEL OD-RH 4.6×150 mm, column temperature: 35° C., mobile phase: mixture solution of methanol/2% aqueous solution of potassium hexafluorophosphate (85:15, v/v), flow rate: 0.6 mL/min., detection: 295 nm).” for “step.”

[3] = State of dissolution in ethanol observed with the naked eye; assay type: physicochemical
Description: The alcohol contents of crystals (Crystals 2, 3) obtained by changing the recrystallization condition of Example 1 were measured, and the state of dissolution in ethanol was also observed with the naked eye. Crystal 2 and Crystal 3 are the crystals of the present invention, wherein the dissolution state was satisfactory as well.
The alcohol content (content of alcohol used in recrystallization) of compositions obtained by changing the recrystallization condition of Example 1 was measured, and the state of dissolution in ethanol was also observed with the naked eye.

[4] = Comparison of state of dissolution in ethanol between crystals; assay type: physicochemical; details: rank order between crystals
Description: The alcohol content of Crystal 4 obtained by changing the recrystallization condition of Example 1 was measured, and the state of dissolution in ethanol was also compared with those of Crystal of Comparative Example of Example 1 and Crystal 3 to compare the solubility.
The alcohol content of Crystal 5 obtained by changing the recrystallization condition of Example 1 was measured, and the state of dissolution in ethanol was also compared with those of Crystal of Comparative Example of Example 1 and Crystal 2 to compare the solubility.
The alcohol content of Crystal 6 obtained by changing the recrystallization condition of Example 1 was measured, and the state of dissolution in ethanol was also compared with those of Crystal of Comparative Example of Example 1, Crystal 4, and Crystal 3 to compare the solubility.
The alcohol content of Crystal 7 obtained by changing the recrystallization condition of Example 1 was measured, and the state of dissolution in ethanol was also compared with those of Crystal of Comparative Example of Example 1 and Crystal 5 to compare the solubility.

[5] = test system: Trichomonas vaginalis (clinically isolated strain); assay: Trichomonas vaginalis culture, cell count on hemocytometer; assay type: cell-based; details: 5.08 mg crystal in Trichomonas medium F, culture 4 days at 37° C., start 3.93×10^5 cells/mL
Description: Effects of an active ingredient containing alcohol were examined by utilizing crystal 10. Crystal, which was obtained by performing recrystallization from a mixture solution of ethyl acetate and n-hexane and which contained no alcohol, was used as a comparative example (comparative crystal). Direct effects of luliconazole were investigated by utilizing Trichomonas vaginalis (clinically isolated strain). Samples were prepared such that 5.08 mg of comparative crystal was added in “Trichomonas medium F” (Fuji Pharma), 5.08 mg of crystal 10 was added in the medium, and 5 μL of water was added in the medium (control). […] of culture solution containing 3.93×10^5 cells/mL of Trichomonas vaginalis was added to each of the samples, followed by culturing for 4 days at 37° C. After that, cells of Trichomonas were counted on a hemocytometer. Between these three samples, significant difference was confirmed at a critical value of not more than 1%.

[6] = Tablet hardness measurement (PTB311); assay type: physicochemical; details: tablet 50% lactose / 50% luliconazole, tableting pressure 1 ton/cm^2, 9 mmφ, average of 6 tablets
Description: According to the formulation described in the following Table 6, tablet was prepared, and its hardness was measured. PTB311 (Pharma Test GmbH) was used as a measurement apparatus for hardness. Condition of tableting was performed at tableting pressure of 1 ton/cm^2 by utilizing 9 mmφ of a mortar and mallet. Comparative example was prepared by performing same procedures as described above by using comparative crystal. […] Accordingly, it is assumed that a tablet having high hardness can be obtained by utilizing the active ingredient containing alcohol since the active ingredient containing alcohol has strong affinity between the active ingredients.

Structure (SMILES): N#C/C(=C1/SC[C@@H](c2ccc(Cl)cc2Cl)S1)n1ccnc1 [Crystal 3, luliconazole]
Solubility (state of dissolution in ethanol) [3]: satisfactory | Solubility order (state of dissolution in ethanol compared) [4]: Crystal of Comparative Example<<Crystal 4=Crystal 6<Crystal 3

Structure (SMILES): N#C/C(=C1/SC[C@@H](c2ccc(Cl)cc2Cl)S1)n1ccnc1 [Crystal 4, luliconazole]
Solubility order (state of dissolution in ethanol compared) [4]: Crystal of Comparative Example<<Crystal 4=Crystal 6<Crystal 3

Structure (SMILES): N#C/C(=C1/SC[C@@H](c2ccc(Cl)cc2Cl)S1)n1ccnc1 [Crystal 5, luliconazole]
Solubility order (state of dissolution in ethanol compared) [4]: Crystal of Comparative Example<<Crystal 2=Crystal 5; also recorded: Crystal of Comparative Example<<Crystal 5=Crystal 7

Structure (SMILES): N#C/C(=C1/SC[C@@H](c2ccc(Cl)cc2Cl)S1)n1ccnc1 [Crystal 6, luliconazole]
Solubility order (state of dissolution in ethanol compared) [4]: Crystal of Comparative Example<<Crystal 4=Crystal 6<Crystal 3

Structure (SMILES): N#C/C(=C1/SC[C@@H](c2ccc(Cl)cc2Cl)S1)n1ccnc1 [Crystal 7, luliconazole]
Solubility order (state of dissolution in ethanol compared) [4]: Crystal of Comparative Example<<Crystal 5=Crystal 7

Continued, in another order:

Time required until dissolution [1]: 200 min | Amount of generation of SE isomer [2]: 0.06% | Amount of generation of Z isomer [2]: 0.06%
Structure (SMILES): N#C/C(=C1/SC[C@@H](c2ccc(Cl)cc2Cl)S1)n1ccnc1 [Crystal 1, luliconazole]

Solubility (state of dissolution in ethanol) [3]: satisfactory
Structure (SMILES): N#C/C(=C1/SC[C@@H](c2ccc(Cl)cc2Cl)S1)n1ccnc1 [Crystal 2, luliconazole]
Solubility order (state of dissolution in ethanol compared) [4]: Crystal of Comparative Example<<Crystal 2=Crystal 5

Solubility (state of dissolution in ethanol) [3]: satisfactory | Hardness [6]: 73.7 ± 4.2 N
Structure (SMILES): N#C/C(=C1/SC[C@@H](c2ccc(Cl)cc2Cl)S1)n1ccnc1 [Crystal 10, luliconazole]
Cells of Trichomonas counted, Average [5]: 256000

Time required until dissolution [1]: 300 min | Amount of generation of SE isomer [2]: 0.09% | Amount of generation of Z isomer [2]: 0.13% | Solubility order (state of dissolution in ethanol compared) ([4]; listed as Comparative Example): Comparative Example<<Crystal 4<Crystal 3 | Hardness ([6]; listed as Comparative crystal): 29.1 ± 3.0 N
Structure (SMILES): N#C/C(=C1/SC[C@@H](c2ccc(Cl)cc2Cl)S1)n1ccnc1 [Crystal of Comp. Ex., luliconazole, reference compound]
Solubility order (state of dissolution in ethanol compared) ([4]; listed as Crystal of Comparative Example): Crystal of Comparative Example<<Crystal 2=Crystal 5; also recorded: Crystal of Comparative Example<<Crystal 4=Crystal 6<Crystal 3; also recorded: Crystal of Comparative Example<<Crystal 5=Crystal 7 | Cells of Trichomonas counted, Average ([5]; listed as Comparative crystal): 376000
